This experiment concerns the target 5-hydroxytryptamine receptor 5A (Homo sapiens, UniProt P47898). Nature of the experiment: Binding Inhibition Assay: A solution of the compound to be tested and 100 μM 5-CT (5-carboxamidetriptamine) in DMSO was added to a 96-well plate at 2 μl/well, suspended in an incubation buffer, and a membrane from HEK293 cells for forced expressions of a human 5-HT5A receptor prepared at 200 ug/ml was added at 100 μl/well. After incubation at room temperature for 15 minutes, a [3H]5-CT solution (2 nM [3H]5-CT, incubation buffer) was added thereto at 100 μl/well.Separately, 100 μl of the solution was distributed into a liquid scintillation vial, and 2 ml of Aquasol II (registered trademark) was added thereto, followed by stirring. Then, radioactivity was measured by a liquid scintillation counter. It was incubated at 37C. for 60 minutes. The reaction mixture was sucked into 96-well GF/C filter plate that had been pre-treated with 0.2% polyethyleneimine, and washed six times with an ice-cooled, 50 mM Tris (pH 7.5) buffer. The GF/C filter plate was dried. In kind it is cell membranes.

Structures are written as SMILES.

Sequence of 5-hydroxytryptamine receptor 5A (P47898 whole entry): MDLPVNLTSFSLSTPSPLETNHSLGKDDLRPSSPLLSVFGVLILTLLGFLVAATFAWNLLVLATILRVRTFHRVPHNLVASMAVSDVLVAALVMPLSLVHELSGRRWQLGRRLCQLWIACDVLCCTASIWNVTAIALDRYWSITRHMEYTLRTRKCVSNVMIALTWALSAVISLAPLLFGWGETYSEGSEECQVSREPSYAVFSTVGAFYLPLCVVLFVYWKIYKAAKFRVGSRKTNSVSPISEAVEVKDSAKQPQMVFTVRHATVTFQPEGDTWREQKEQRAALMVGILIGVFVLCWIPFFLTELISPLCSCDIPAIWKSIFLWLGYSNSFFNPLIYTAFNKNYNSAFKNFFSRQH

As usually defined, the Ki is a dissociation constant, usually derived from enzyme kinetics or from competition with a known ligand. With `NC(N)=NC(=O)c1ccc2c(C(F)F)cnc(-c3c(F)cccc3F)c2c1`, the inhibition constant Ki stood at 4.6 nM.

(Values after ChEMBL document CHEMBL3638868, “Nitrogenous-ring acylguanidine derivative” (2014).)
